Columns and labels:
Assay type in all cases: physicochemical
[1] = Solid state stress stability (storage; XRPD and stability-indicating HPLC); settings: 40° C./75% RH
Description: Typically 10 μL aliquots of the sample solutions were diluted to 1 mL with acetonitrile and the assay concentrations were determined from an average of duplicate injections using the following HPLC method. The purity and impurity analyses are done using conventional HPLC.
Crystallization studies were performed to investigate polymorphism in 48 different solvents. Solvents were selected on the basis of acceptability (ICH Class 3 and 2) and to give a range of dielectric constants, dipole moments and functional groups. Two starting materials were selected: Form A0 and Lot 7 (a mixture of Form A0, Form HC0 and Form HD0). When possible, full characterization was performed on the new forms that were generated during the polymorphism screening of Compound I. This characterization consisted of: XRPD, thermal analysis, DVS, storage at 40° C./75% RH and purity.
Stress stability studies were performed to get a timely impression of the influence of temperature and humidity on form stability. A stability-indicating HPLC assay method was developed for quantitation of Compound I and its major degradation product, 7-methoxy-1,2,3,11-tetrahydro-5,11-diaza-benzo[a]trindene-4,6-dione, previously referred to as “Compound E”.

[2] = Dynamic vapor sorption (DVS)
Description: Gravimetric vapor sorption experiments were carried out using the DVS-HT instrument (Surface Measurement Systems, London, UK). This instrument measures the uptake and loss of vapor gravimetrically using a recording ultra-microbalance with a mass resolution of ±0.1 μg. The vapor partial pressure (±1.0%) around the sample was controlled by mixing saturated and dry carrier gas streams using electronic mass flow controllers. The desired temperature was maintained at ±0.1° C.
The samples (10-25 mg) were placed into the DVS-HT instrument at the desired temperature. Two types of dynamic vapor sorption experiments were performed: • 1. The sample was initially dried in stream of dry air (<0.1% relative humidity (RH)) for 20 hours to establish a dry mass and exposed to two 0-90% RH cycles (in 10% RH increments). • 2. The sample was exposed at 90% RH for 20 hours and exposed to two 90-0% RH cycles (in 10% RH increments). Infrared Spectrometry (FTIR)

[3] = Thermodynamic solubility of monohydrate forms in organic solvents
Description: Experiments were set up to measure the thermodynamic solubility of these monohydrate forms at room temperature and 55° C. in ethyl acetate, MTBE and 1-pentanol.

[4] = Irregular DVS (90 to 0% RH), listed as HD0
[5] = Regular DVS (0 to 90% RH), listed as HD0

Chemical Stability (HPLC (post 4 weeks at 40° C./75% RH (Area %))) ([1]; 4 weeks): 92.3 Area %
HPLC % Compound I ([1]; 0 days): 93.5% Compound I,
XRPD (form found) ([1]; 0 days): HD0
HPLC % Compound I ([1]; 7 days): 92.2% Compound I,
XRPD (form found) ([1]; 7 days): HD0
HPLC % Compound I ([1]; 13 days): 92.3% Compound I,
XRPD (form found) ([1]; 13 days): HD0
HPLC % Compound I ([1]; 28 days): 92.3% Compound I,
XRPD (form found) ([1]; 28 days): HD0
Total uptake at 90% RH ([2]; Irregular DVS (90 to 0% RH)): 0.8%
changes by XRPD re-analysis after DVS ([2]; Irregular DVS (90 to 0% RH)): No significant changes
At 75% RH uptake [2, 4]: 0.4%
Total uptake at 90% RH [2, 4]: 0.8%
Total uptake at 90% RH ([2]; Regular DVS (0 to 90% RH)): 0.6%
changes by XRPD re-analysis after DVS ([2]; Regular DVS (0 to 90% RH)): No significant changes
At 75% RH uptake [2, 5]: 0.4%
Total uptake at 90% RH [2, 5]: 0.6%
solubility relative to the other hydrated polymorph (Form HC0) ([3]; ethyl acetate, MTBE, 1-pentanol, RT and 55° C.): always higher
SMILES: COc1cccc2[nH]c3c4c(c5c(c3c12)C(=O)N(CN1CCN(C)CC1)C5=O)CCC4 [Form HD0, 4,5,6,7-tetrahydro-11-methoxy-2-[(4-methyl-1-piperazinyl)methyl]-1H-cyclopenta[a]pyrrolo[3,4-c]carbazole-1,3(2H)-dione]
relative thermodynamic stability in solution ([3]; between room temperature and 55° C.): more thermodynamically stable than Form HC0 and form HA0
